Patent publication US9145435B2, “Urea compounds” (Eli Lilly and Company, priority 2013, dated 2015)

Columns and labels:
[1] = biological target: T1, human SGLT1 (Homo sapiens, UniProt P13866); test: Sodium-dependent 14C-AMG uptake assay in CHO-K1 cells expressing human SGLT1; type: cell-based; details: n=9
T1 sequence (P13866 1-664): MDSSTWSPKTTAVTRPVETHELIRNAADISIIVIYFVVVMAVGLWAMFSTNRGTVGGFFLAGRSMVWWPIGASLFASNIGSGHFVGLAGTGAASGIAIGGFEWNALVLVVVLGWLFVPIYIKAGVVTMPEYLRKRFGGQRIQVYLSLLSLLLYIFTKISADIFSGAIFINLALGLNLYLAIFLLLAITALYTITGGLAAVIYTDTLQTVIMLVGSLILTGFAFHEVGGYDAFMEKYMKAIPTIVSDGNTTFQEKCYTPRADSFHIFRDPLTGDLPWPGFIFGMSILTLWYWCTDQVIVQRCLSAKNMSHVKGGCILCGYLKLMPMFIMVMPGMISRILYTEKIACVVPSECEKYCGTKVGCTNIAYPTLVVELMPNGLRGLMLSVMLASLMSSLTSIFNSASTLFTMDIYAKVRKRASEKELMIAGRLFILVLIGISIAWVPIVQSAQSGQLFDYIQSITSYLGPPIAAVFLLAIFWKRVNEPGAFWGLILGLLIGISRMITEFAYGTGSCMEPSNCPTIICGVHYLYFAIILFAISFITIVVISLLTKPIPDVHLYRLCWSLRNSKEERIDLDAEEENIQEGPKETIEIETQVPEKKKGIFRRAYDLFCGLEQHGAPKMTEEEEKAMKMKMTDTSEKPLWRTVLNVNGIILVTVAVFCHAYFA
Excerpt: (§1) The cDNA encoding human SGLT1 (slc5a1, NM_000343) and mouse SGLT1 (slc5a1, NM_019810.4) are purchased from Openbiosystems. The cDNA is cloned into pcDNA3.1+ for mammalian expression and is stably transfected into Chinese hamster ovary (CHO)-K1 cells using standard mammalian transfection procedures. An SGLT-expressing sub-clone of each over-expressing cell line is selected based on resistance to neomycin (Geneticin, Invitrogen) and activity in the ^14C-a-methyl-D-glucopyranoside (^14C-AMG) uptake assay (see below). Stable SGLT-expressing cells are maintained using standard cell culture techniques.
(§2) The SGLT activity is measured as sodium-dependent ^14C-AMG uptake in the above cell lines described as follows. One hundred […] of culture medium containing 30,000 cells are seeded to each well of a 96-well BioCoat poly-D-lysine plate (Becton Dickson) and cultured at 37° C. overnight. The culture medium is aspirated and cells are washed twice with […] of Reaction Buffer (140 mM NaCl, 2 mM KCl, 1 mM CaCl2, MgCl2, and 14 mM N-2-hydroethylpiperrazine-N′-2-ethanesulfonic acid (Hepes), pH 7.5). The excess buffer is tapped out onto paper towels. Thirty-five […] of Reaction Buffer are added to each well. […] After mixing, the scintillation signal in the plate is counted in a MicroBeta (PerkinElmer). […]

[2] = biological target: T2, mouse SGLT1 (Mus musculus, UniProt Q8C3K6); test: Sodium-dependent 14C-AMG uptake assay in CHO-K1 cells expressing mouse SGLT1; type: cell-based; details: n=6
T2 sequence (Q8C3K6 1-665): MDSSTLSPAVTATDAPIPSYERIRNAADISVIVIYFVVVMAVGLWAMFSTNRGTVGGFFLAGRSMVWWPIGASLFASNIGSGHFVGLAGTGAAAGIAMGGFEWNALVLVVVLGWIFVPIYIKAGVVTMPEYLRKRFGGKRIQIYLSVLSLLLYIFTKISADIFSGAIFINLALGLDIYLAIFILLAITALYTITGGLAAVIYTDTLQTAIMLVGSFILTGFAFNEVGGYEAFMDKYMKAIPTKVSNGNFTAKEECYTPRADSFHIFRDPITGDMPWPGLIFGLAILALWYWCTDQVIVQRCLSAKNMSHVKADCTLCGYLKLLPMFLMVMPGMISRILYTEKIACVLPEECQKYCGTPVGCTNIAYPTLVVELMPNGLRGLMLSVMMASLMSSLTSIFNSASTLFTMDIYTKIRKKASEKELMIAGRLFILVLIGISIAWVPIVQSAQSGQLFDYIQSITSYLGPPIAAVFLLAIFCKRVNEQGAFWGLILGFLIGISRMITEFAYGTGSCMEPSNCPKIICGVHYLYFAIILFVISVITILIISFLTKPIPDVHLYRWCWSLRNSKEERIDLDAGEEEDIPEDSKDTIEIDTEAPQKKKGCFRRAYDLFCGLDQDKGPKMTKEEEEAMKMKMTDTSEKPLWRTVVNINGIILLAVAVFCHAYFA
Excerpt: as §1, §2

[3] = system: C57B1/6 mice; test: Glucose lowering effects in oral glucose tolerance test (OGTT); type: in vivo, mouse; details: for Glucose 20 Minute / Glucose 40 Minute / Glucose 60 Minute / Baseline Adjusted AUC (glucose) / Glucose Cmax / Glucose Tmax / Glucose 0 Minute: OGTT, 10 mg/kg oral, Mean ± SEM; for Glucose 20 Minute: 20 min after dextrose; for Glucose 40 Minute: 40 min after dextrose; for Glucose 60 Minute: 60 min after dextrose; for Glucose 0 Minute: baseline before 3 g/kg dextrose
Procedure: The test compound is formulated by adding a vehicle of 1% hydroxyethylcellulose, 0.25% Tween® 80 w/antifoam 0.05% to preweighed test compound to make a 1 mg/ml solution. The mixture is probe sonicated for approximately 1 minute. A stir bar is added, and the resulting suspension is stirred continuously throughout dosing.
One of two sets of single housed C57B1/6 mice are weighed and body weights used to determine study groups (n=5), within a working range of 26-30 g. After grouping, the mice are orally gavaged with 10 ml/kg test compound preparation or vehicle, thirty seconds apart. […] Both sets of mice are then fasted overnight by removing access to food, late afternoon before test day. The following morning, the remaining mice, are weighed and bled (via tail snip) for glucose. Study groups (n=5) are determined using fasted glucose values, within a working range of 80-100 mg/dl. After grouping, the mice are orally gavaged using the same protocol as the previous day.
At eight and eighteen hours after each respective compound treatment is started, a baseline blood sample is taken for measuring glucose (from the first animal). The animal is then immediately given an oral dose of 50% dextrose (Hospira®) at 3 g/kg. Blood samples are taken for glucose, exactly thirty seconds apart, by tail vein so that blood is collected in each animal at 20, 40 and 60 minutes after the dextrose dose.

`Cc1cccc2c1c(Cc1ccc(/C=C/CCN3CCCC4(CCN(C(=O)CNC(=O)NCC(C)C)CC4)C3)cc1)cn2[C@@H]1O[C@H](CO)[C@@H](O)[C@H](O)[C@H]1O` [Example 1, 1-isobutyl-3-[2-[4-[(E)-4-[4-[[4-methyl-1-[(2R,3R,4S,5S,6R)-3,4,5-trihydroxy-6-(hydroxymethyl)tetrahydropyran-2-yl]indol-3-yl]methyl]phenyl]but-3-enyl]-4,9-diazaspiro[5.5]undecan-9-yl]-2-oxo-ethyl]urea] was tested, and the IC50 [1] was 17.4 ± 14.6 nM, the IC50 [2] was 13.6 ± 7.3 nM and the “Glucose 20 Minute” value ([3]; 8 hrs post dose) was 119.1 ± 11.4 mg/dL. For the same compound, the “Glucose 40 Minute” value ([3]; 8 hrs post dose) was 127.7 ± 8.32 mg/dL, the “Glucose 60 Minute” value ([3]; 8 hrs post dose) was 132.6 ± 8.85 mg/dL and the “Baseline Adjusted AUC (glucose)” value ([3]; 8 hrs post dose) was 2752 ± 507 mg/dL. For the same compound, the “Glucose Cmax” value ([3]; 8 hrs post dose) was 134.7 ± 8.31 mg/dL, the “Glucose Tmax” value ([3]; 8 hrs post dose) was 48 ± 8 min and the “Glucose 0 Minute” value ([3]; 8 hrs post dose) was 70.2 ± 5.47 mg/dL. The “Glucose 20 Minute” value ([3]; 18 hrs post dose) was 116.1 ± 2.71 mg/dL, the “Glucose 40 Minute” value ([3]; 18 hrs post dose) was 130.7 ± 4.47 mg/dL and the “Glucose 60 Minute” value ([3]; 18 hrs post dose) was 124.1 ± 1.42 mg/dL. The “Baseline Adjusted AUC (glucose)” value ([3]; 18 hrs post dose) was 1792 ± 254 mg/dL, the “Glucose Cmax” value ([3]; 18 hrs post dose) was 132.7 ± 3.27 mg/dL and the “Glucose Tmax” value ([3]; 18 hrs post dose) was 48 ± 4.9 min. For the same compound, the “Glucose 0 Minute” value ([3]; 18 hrs post dose) was 87.7 ± 3.36 mg/dL and the “glucose excursion after oral bolus of 50% dextrose” value ([3]; normal glycemic C57B1/6 mouse, eight or eighteen hours after administration) was “decrease”.
